# Assay results taken from ChEMBL document CHEMBL5385908, “Screening Ultra-Large Encoded Compound Libraries Leads to Novel Protein-Ligand Interactions and High Selectivity” (J Med Chem, 2024).
# Tests used:
# [1] = target: T1, Proteinase-activated receptor 2 (Homo sapiens, UniProt P55085); assay: Binding affinity to PAR2 (unknown origin) assessed as inhibition constant
# T1 sequence (P55085 whole entry): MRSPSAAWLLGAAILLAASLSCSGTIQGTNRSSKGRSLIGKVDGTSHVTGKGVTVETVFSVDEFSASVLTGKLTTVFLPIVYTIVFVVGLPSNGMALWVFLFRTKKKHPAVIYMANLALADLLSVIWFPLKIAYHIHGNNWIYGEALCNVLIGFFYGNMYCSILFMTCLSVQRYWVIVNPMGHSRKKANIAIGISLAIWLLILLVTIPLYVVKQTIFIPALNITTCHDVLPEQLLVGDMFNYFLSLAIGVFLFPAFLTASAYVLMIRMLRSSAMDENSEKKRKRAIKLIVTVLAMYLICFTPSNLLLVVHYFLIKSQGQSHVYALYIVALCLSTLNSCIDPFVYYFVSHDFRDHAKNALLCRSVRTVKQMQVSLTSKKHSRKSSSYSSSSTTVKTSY
# [2] = target: T1, Proteinase-activated receptor 2; assay: Antagonist activity at PAR2 (unknown origin)
# [3] = target: T2, ATPase family AAA domain-containing protein 2 (Homo sapiens, UniProt Q6PL18); assay: Inhibition of N-terminal Hexahistidine-GST-tagged human ATAD2 bromodomain expressed in Escherichia coli BL21 (DE3) Rosetta cells incubated for 1 hr by FRET analysis
# T2 sequence (Q6PL18 whole entry): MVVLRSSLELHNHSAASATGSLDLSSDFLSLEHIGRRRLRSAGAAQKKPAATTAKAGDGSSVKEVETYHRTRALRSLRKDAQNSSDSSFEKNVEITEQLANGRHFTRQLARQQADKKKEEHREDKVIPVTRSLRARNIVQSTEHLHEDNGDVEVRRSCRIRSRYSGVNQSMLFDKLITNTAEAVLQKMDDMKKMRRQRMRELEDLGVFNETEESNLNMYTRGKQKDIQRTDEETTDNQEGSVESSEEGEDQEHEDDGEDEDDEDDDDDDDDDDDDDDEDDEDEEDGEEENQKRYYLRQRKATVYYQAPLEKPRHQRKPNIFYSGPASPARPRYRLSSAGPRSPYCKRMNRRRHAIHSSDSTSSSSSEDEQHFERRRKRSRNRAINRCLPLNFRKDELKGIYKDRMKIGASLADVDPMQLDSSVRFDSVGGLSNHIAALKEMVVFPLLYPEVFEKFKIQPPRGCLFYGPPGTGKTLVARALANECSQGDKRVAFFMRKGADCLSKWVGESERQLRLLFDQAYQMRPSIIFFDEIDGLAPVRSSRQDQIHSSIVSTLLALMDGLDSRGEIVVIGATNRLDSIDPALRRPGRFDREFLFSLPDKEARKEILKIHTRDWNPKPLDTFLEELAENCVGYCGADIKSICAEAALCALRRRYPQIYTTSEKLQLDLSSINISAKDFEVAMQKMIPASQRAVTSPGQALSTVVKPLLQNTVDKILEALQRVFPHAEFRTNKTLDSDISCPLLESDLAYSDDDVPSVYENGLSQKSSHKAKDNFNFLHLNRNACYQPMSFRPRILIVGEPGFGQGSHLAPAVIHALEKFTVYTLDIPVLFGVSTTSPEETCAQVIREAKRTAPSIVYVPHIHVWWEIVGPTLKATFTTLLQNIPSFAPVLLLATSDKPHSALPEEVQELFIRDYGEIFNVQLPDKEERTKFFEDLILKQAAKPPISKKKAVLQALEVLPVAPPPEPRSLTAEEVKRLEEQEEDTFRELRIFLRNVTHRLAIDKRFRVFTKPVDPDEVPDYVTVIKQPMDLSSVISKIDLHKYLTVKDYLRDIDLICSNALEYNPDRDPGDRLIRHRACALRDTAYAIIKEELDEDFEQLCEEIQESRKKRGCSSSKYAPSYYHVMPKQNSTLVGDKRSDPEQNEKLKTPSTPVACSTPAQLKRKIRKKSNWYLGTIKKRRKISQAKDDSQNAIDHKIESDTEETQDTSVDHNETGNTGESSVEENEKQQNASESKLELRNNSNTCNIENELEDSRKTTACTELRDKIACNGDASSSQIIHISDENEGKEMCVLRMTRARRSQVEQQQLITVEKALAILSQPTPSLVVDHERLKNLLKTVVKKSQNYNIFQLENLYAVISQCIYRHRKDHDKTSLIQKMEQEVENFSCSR
# [4] = target: T3, Tyrosine-protein kinase Mer (Homo sapiens, UniProt Q12866); assay: Inhibition of N-terminal His6-tagged human MerTk
# T3 sequence (Q12866 whole entry): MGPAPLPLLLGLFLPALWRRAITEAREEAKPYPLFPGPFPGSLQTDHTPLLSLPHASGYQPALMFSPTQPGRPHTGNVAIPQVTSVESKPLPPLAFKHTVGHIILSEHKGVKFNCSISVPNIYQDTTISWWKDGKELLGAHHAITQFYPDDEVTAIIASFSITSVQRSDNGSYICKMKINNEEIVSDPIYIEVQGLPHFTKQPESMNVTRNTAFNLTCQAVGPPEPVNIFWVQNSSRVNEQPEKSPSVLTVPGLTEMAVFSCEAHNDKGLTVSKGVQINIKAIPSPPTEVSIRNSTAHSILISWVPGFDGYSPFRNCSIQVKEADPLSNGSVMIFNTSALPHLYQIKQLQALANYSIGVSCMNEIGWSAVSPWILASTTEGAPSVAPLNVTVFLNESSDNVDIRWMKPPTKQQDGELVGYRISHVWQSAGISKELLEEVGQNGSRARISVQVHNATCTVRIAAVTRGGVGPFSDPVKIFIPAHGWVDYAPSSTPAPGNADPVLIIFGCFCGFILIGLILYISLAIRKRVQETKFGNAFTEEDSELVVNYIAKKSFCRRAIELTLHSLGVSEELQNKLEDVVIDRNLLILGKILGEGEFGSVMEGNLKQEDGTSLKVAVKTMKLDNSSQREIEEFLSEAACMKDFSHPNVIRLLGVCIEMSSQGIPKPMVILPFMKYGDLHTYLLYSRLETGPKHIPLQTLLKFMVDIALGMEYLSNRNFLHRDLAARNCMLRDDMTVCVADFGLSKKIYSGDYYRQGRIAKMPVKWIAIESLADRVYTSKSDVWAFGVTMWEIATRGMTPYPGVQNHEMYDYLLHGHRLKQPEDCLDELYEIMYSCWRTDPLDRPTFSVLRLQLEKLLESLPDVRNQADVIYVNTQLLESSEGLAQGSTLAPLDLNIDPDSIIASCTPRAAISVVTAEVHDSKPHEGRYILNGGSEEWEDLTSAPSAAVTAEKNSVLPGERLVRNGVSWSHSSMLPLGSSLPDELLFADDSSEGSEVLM
# [5] = target: T4, Tyrosine-protein kinase receptor UFO (Homo sapiens, UniProt P30530); assay: Inhibition of AXL (unknown origin) by FRET assay
# T4 sequence (P30530 whole entry): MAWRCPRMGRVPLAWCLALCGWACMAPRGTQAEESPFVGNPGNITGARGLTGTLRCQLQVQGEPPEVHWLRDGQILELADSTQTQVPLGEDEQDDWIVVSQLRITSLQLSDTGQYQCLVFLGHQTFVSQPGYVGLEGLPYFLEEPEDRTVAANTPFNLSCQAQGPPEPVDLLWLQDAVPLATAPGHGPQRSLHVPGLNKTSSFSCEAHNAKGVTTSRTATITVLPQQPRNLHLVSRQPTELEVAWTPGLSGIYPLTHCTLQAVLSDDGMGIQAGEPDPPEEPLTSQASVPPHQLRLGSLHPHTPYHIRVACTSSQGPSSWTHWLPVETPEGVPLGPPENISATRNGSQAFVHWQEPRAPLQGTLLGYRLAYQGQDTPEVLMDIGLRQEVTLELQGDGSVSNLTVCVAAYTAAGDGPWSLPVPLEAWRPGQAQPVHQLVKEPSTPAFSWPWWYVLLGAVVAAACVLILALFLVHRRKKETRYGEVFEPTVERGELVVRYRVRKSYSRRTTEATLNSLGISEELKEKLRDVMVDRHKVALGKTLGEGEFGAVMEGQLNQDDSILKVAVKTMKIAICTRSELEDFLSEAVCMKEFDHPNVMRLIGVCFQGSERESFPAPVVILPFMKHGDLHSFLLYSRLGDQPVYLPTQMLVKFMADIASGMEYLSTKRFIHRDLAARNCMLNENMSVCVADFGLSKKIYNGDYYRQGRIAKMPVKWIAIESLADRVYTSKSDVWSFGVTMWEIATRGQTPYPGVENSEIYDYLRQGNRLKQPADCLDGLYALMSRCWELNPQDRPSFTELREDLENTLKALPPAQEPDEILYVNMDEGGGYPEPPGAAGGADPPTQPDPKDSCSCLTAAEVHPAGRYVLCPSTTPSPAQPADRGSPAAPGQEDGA
# [6] = target: T5, Receptor-type tyrosine-protein kinase FLT3 (Homo sapiens, UniProt P36888); assay: Inhibition of wild type FLT3 (unknown origin)
# T5 sequence (P36888 whole entry): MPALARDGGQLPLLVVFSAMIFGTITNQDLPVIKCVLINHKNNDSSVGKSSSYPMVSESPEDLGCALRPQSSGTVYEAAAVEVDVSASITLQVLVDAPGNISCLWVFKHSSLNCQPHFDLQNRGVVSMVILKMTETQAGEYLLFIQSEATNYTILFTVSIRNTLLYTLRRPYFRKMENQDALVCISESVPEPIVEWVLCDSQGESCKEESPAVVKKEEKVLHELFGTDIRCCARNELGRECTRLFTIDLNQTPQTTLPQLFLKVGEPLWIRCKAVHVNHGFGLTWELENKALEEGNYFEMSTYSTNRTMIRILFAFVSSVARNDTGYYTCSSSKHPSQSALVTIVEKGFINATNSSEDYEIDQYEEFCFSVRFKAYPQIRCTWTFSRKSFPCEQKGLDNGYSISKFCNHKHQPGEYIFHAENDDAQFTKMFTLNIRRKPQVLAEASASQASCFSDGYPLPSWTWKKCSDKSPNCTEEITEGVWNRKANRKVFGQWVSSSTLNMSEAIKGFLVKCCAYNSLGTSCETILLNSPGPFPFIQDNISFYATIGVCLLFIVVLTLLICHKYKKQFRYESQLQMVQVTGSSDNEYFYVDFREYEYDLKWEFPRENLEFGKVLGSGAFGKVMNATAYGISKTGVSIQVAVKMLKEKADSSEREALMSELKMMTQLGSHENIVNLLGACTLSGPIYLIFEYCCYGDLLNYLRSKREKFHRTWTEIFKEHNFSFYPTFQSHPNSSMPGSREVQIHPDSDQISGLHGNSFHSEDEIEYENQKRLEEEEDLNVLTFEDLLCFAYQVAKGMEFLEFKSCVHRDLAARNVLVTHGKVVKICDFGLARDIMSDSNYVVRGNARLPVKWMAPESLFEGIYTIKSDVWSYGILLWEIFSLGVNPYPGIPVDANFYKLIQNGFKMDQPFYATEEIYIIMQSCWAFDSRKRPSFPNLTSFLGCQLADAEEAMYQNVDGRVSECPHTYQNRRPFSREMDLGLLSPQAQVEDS
# Protein phosphatase 1D = target: T6, Protein phosphatase 1D (Homo sapiens, UniProt O15297); assay: Inhibition of N-terminal FLAG-His8-tagged human Wip1 (2 to 420 residues) expressed in bac-to-bac baculovirus expression system infected Sf9 cells
# T6 sequence (O15297 whole entry): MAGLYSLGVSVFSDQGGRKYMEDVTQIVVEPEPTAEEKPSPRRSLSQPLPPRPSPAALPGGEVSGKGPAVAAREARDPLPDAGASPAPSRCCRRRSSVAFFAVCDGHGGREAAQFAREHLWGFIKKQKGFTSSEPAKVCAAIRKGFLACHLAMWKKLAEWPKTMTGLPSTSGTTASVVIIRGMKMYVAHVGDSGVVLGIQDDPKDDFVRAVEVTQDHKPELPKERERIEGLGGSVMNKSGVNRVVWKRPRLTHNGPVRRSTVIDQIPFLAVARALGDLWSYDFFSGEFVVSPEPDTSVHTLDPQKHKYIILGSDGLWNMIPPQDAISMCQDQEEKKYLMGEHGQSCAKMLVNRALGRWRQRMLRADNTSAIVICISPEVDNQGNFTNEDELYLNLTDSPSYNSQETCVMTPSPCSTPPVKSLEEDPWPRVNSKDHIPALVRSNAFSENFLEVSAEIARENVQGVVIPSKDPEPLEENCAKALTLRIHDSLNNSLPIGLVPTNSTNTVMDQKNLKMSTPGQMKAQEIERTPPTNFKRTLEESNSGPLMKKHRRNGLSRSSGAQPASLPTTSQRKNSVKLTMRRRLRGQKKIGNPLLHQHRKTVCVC
# [7] = target: T7, Protein-arginine deiminase type-4 (Homo sapiens, UniProt Q9UM07); assay: Inhibition of N-terminal GST-tagged PAD4 (unknown origin) expressed in Escherichia coli incubated for 1 hr by spectrophotometric method
# [8] = target: T7, Protein-arginine deiminase type-4; assay: Inhibition of N-terminal GST-tagged PAD4 (unknown origin) expressed in Escherichia coli BL21 (DE3) measured after 1 hr by colorimetric assay
# T7 sequence (Q9UM07 whole entry): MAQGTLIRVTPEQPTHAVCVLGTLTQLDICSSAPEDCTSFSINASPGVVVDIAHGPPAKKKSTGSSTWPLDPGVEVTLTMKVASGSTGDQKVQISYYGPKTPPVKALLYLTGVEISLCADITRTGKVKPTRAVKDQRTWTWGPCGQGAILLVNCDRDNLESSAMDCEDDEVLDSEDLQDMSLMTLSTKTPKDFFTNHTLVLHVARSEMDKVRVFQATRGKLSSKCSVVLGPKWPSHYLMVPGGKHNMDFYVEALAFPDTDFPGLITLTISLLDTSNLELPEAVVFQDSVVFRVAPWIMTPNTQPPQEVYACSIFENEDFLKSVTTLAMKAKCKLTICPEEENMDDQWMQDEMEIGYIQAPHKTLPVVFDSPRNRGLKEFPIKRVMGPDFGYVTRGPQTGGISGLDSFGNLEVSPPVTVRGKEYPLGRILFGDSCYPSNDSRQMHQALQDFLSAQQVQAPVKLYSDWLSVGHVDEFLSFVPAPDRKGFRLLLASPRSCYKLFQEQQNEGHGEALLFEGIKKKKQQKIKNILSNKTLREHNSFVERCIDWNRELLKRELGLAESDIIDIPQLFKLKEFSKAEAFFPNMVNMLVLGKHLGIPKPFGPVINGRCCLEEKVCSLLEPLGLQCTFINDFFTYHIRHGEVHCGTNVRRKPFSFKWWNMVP
compound,measurement,setting,value
NCCCC[C@H](NC(=O)CNC(=O)Nc1ccc2c(c1)c(CN1CCCC1)cn2Cc1c(Cl)cccc1Cl)C(=O)N[C@@H](Cc1ccccc1)C(=O)NC(c1ccccc1)c1ccccc1,Ki,[1],670 nM
C[C@@H](C1CCCCC1)n1c(-c2cc3c(cc2Br)OCO3)nc2cc(C(=O)Nc3ccc(C#N)cc3)ccc21,IC50,[2],23 nM
COc1cc(Cl)c(C(=O)N[C@@H](CN[C@H]2CC[C@@H](N)CC2)Cc2ccc(C#N)cc2)cc1-c1ccc(CN[C@H](C)c2ccc(C)cc2)o1,IC50,[3],22 nM
CNC(=O)[C@@H](Cc1ccc([N+](=O)[O-])cc1)NC(=O)c1cc(-c2ccc(CN[C@H](C)c3ccc(C)cc3)o2)ccc1Cl,IC50,[3],22 nM
C[C@@H](c1ccccc1)n1c(-c2cc3c(cc2Br)OCO3)nc2cc(C(=O)Nc3ccccc3)ccc21,IC50,[2],90 nM
CNC(=O)C[C@@H](NC(=O)[C@@H](Cc1ccccc1)NC(=O)c1c(C)noc1-c1snnc1C)c1ccc(C(F)(F)F)cc1,IC50,[4],5 nM
same,IC50,[5],16 nM
same,IC50,[6],> 100 µM
COCCNC(=O)[C@H](CC1CCCCC1)NC(=O)c1ccc(CNc2cccc(Cl)c2)s1,IC50,Protein phosphatase 1D,13 nM
Cn1c(-c2cc3cc(C(=O)N4CCCC(N)C4)ccc3n2N)cc2ccccc21 (stereo not given),IC50,[7],3200 nM
COc1cc(C(=O)N2CCC[C@@H](N)C2)cc2cc(-c3cc4cccnc4n3C)n(N)c12,IC50,[7],200 nM
same,IC50,[8],200 nM
CN(Cc1ccc2nccn2c1)c1ccc(-c2ccc(-c3ccccc3Cl)cc2)o1,IC50,[4],5 nM
same,IC50,[5],400 nM
same,IC50,[6],15.8 µM
